The record followed here is US20070207175A1, “Biaromatic compound activators of PPARgamma receptors and cosmetic/pharmaceutical compositions comprised thereof” (GALDERMA RESEARCH & DEVELOPMENT, priority 2004, published 2007).

Holding throughout (type): cell-based
In test [1] the target is T1, PPARγ (Homo sapiens, UniProt P37231).
T1 sequence (P37231 238-505 limits assumed): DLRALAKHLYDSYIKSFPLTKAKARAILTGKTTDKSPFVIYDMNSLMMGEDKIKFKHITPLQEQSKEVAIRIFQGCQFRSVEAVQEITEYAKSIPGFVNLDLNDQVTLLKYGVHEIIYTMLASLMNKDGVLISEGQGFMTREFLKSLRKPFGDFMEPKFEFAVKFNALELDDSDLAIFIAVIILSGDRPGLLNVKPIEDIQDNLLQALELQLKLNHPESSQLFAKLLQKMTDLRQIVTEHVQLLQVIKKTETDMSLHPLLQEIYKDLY
As to the kind of experiment: Crossed-curve PPAR transactivation assay (PPARγ). The conditions noted are these: HeLN cells stably transfected with Gal-hPPARγ and luciferase reporter; Schild regression against reference agonist; n.a. means not active; read-out: PPARγ Kdapp. The protocol:
(§1) Activation of the PPAR receptors by an agonist (activator) in HeLN cells leads to the expression of a reporter gene, luciferase, which, in the presence of a substrate, generates light. The modulation of the PPAR receptors is measured by quantifying the luminescence produced after incubation of the cells in the presence of a reference agonist. The ligands will displace the agonist from its site. The measurement of the activity is performed by quantifying the light produced. This measurement makes it possible to determine the modulatory activity of the compounds according to the invention by the determination of the constant which is the affinity of the molecule for the PPAR receptor. Since this value can fluctuate depending on the basal activity and the expression of the receptor, it is referred to as apparent Kd (Kdapp in nM).
(§2) To determine this constant, “crossed curves” for the test product, against a reference agonist, are prepared using a 96-well plate: 10 concentrations of the test product plus a concentration 0 are arranged in a line, and 7 concentrations of the agonist plus a concentration 0 are arranged in a column. This is 88 measurement points for 1 product and 1 receptor. The remaining 8 wells are used for repeatability controls.
(§3) Measurements are also taken for total agonist controls with the same products.
(§4) The HeLN cell lines used are stable transfectants containing the plasmids ERE-βGlob-Luc-SV-Neo (reporter gene) and PPAR (α, δ, γ) Gal-hPPAR. These cells are seeded in 96-well plates at the rate of 10,000 cells per well in 100 μl of DMEM medium without phenol red and supplemented with 10% of defatted calf serum. The plates are then incubated for 16 hours at 37° C. and 7% CO2.
(§5) The various dilutions of the test products and of the reference ligand are added at the rate of 5 μl per well. The plates are subsequently incubated for 18 hours at 37° C. and 7% CO2. The culture medium is removed by turning over and 100 μl of a 1:1 PBS/luciferin mixture are added to each well. After 5 minutes, the plates are read using the luminescence reader.

Test [2] concerns the target T2, PPARδ (Homo sapiens, UniProt Q03181).
T2 sequence (Q03181 211-441 limits assumed): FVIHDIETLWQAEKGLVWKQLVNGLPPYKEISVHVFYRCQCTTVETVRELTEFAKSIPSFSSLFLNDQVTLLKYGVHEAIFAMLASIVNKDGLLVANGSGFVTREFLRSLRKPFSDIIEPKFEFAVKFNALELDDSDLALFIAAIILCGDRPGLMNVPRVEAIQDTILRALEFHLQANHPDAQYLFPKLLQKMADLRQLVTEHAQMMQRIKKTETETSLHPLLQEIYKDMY
As to the kind of experiment: Crossed-curve PPAR transactivation assay (PPARδ). The conditions noted are these: HeLN cells stably transfected with Gal-hPPARδ and luciferase reporter; Schild regression against reference agonist; n.a. means not active; read-out: PPARδ Kdapp. How it is done:
as §1, §2, §3, §4, §5
(Reporter assays use an easily measured gene product as a stand-in for the process of interest.)

In test [3] the target is T3, PPARα (Homo sapiens, UniProt Q07869).
T3 sequence (Q07869 200-468 limits assumed): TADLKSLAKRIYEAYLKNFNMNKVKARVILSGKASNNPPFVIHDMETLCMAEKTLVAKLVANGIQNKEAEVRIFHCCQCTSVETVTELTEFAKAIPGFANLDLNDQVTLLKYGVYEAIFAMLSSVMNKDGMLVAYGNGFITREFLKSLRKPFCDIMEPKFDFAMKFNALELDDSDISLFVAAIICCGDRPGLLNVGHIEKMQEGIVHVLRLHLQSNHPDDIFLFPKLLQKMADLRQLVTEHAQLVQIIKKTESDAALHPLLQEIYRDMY
As to the kind of experiment: Crossed-curve PPAR transactivation assay (PPARα). The conditions noted are these: HeLN cells stably transfected with Gal-hPPARα and luciferase reporter; Schild regression against reference agonist; n.a. means not active; read-out: PPARα Kdapp. How it is done: as §1
To determine this constant, “crossed curves” for the test product, against a reference agonist, are prepared using a 96-well plate: 10 concentrations of the test product plus a concentration 0 are arranged in a line, and 7 concentrations of the agonist plus a concentration 0 are arranged in a column. This is 88 measurement points for 1 product and 1 receptor. […]
The various dilutions of the test products and of the reference ligand are added at the rate of 5 μl per well. […] After 5 minutes, the plates are read using the luminescence reader.

Each structure is given as a SMILES string.

For the compound `CCCCCCCC(=O)N(C)Cc1cccc(-c2ccc(/C=C/C(=O)O)cc2)c1` [Example 1, 3-(3′-[((methyl)(octanoyl)amino)methyl]biphenyl-4-yl)acrylic acid], in test [1], the Kd amounted to 500 nM.

For the compound `CCCCCCCC(=O)N(C)Cc1cccc(-c2ccc(CCC(=O)O)cc2)c1` [Example 2, 3-{3′-[((methyl)(octanoyl)amino)methyl]biphenyl-4-yl}propanoic acid], in test [1], the Kd came to 120 nM.

With `CCCCCCCC(=O)N(C)Cc1cccc(-c2ccc(/C=C/C(=O)O)c(F)c2)c1` [Example 3, 3-{3-fluoro-3′-[((methyl)(octanoyl)amino)methyl]biphenyl-4-yl}acrylic acid], the Kd in test [1] is 60 nM.

Turning to `CCCCCCCC(=O)N(C)Cc1cccc(-c2ccc(CCC(=O)O)c(F)c2)c1` [Example 4, 3-[3-fluoro-3′-[((methyl)(octanoyl)amino)methyl]biphenyl-4-yl)propanoic acid], the Kd in test [1] was 250 nM.

Turning to `CCCCCCCC(=O)NCc1cccc(-c2ccc(CCC(=O)O)cc2)c1` [Example 6, 3-[3′-((octanoylamino)methyl)biphenyl-4-yl]propanoic acid], in test [1], the Kd was found to be 4000 nM.

On to `CCCCCCCC(=O)N(C)Cc1cccc(-c2ccc(CCC(=O)O)c(O)c2)c1` [Example 7, 3-{3-hydroxy-3′-[((methyl)(octanoyl)amino)methyl]biphenyl-4-yl}propanoic acid], for which the Kd in test [1] stood at 4000 nM.

In the case of `CCCCCCCC(=O)N(C)Cc1cccc(-c2ccc(CCC(=O)O)cc2OCCCC)c1` [Example 8, 3-{2-butoxy-3′-[((methyl)(octanoyl)amino)methyl]biphenyl-4-yl}propanoic acid], the Kd in test [1] came to 1 nM.

`CCCCCC(=O)N(C)Cc1cccc(-c2ccc(CCC(=O)O)cc2OCCCC)c1` [Example 9, 3-{2-butoxy-3′-[((hexanoyl)(methyl)amino)methyl]biphenyl-4-yl}propanoic acid]: the values for the Kd in test [2], in test [3] and in test [1] were 4000 nM, 4000 nM and 4 nM, respectively.

For the compound `CCCCOc1cc(CCC(=O)O)ccc1-c1cccc(CN(C)C(=O)CCCC)c1` [Example 10, 3-{2-butoxy-3′-[((methyl)(pentanoyl)amino)methyl]biphenyl-4-yl}propanoic acid], the figures for the Kd in test [2] and in test [1] were 4000 nM and 4 nM, respectively.

Turning to `CCCCCCC(=O)N(C)Cc1cccc(-c2ccc(CCC(=O)O)cc2OCCCC)c1` [Example 11, 3-{2-butoxy-3′-[((heptanoyl)(methyl)amino)methyl]biphenyl-4-yl}propanoic acid], the Kd stood at 4000 nM in test [2], 500 nM in test [3] and 1 nM in test [1].

As for `CCCCOc1cc(CCC(=O)O)ccc1-c1cccc(CN(C)C(=O)c2ccc(OCC)cc2)c1` [Example 12, 3-(2-butoxy-3′-{[(4-ethoxybenzoyl)(methyl)amino]methyl}biphenyl-4-yl)propanoic acid], the Kd in test [1] stood at 0.25 nM.

Regarding `CCCCOc1ccc(C(=O)N(C)Cc2cccc(-c3ccc(CCC(=O)O)cc3OCCCC)c2)cc1` [Example 13, 3-(2-butoxy-3′-{[(4-butoxybenzoyl)(methyl)amino]methyl}biphenyl-4-yl)propanoic acid], the Kd in test [1] was found to be 1 nM.

As to `CCCCOc1cc(CCC(=O)O)ccc1-c1cccc(CN(C)C(=O)c2ccccc2)c1` [Example 14, 3-{3′-[((benzoyl)(methyl)amino)methyl]-2-butoxybiphenyl-4-yl}propanoic acid], the Kd in test [1] came to 8 nM.

`CCCCOc1cc(CCC(=O)O)ccc1-c1cccc(CN(C)C(=O)c2ccc(OC)cc2)c1` [Example 15, 3-(2-butoxy-3′-{[(4-methoxybenzoyl)(methyl)amino]methyl}biphenyl-4-yl)propanoic acid]: the values for the Kd in test [2] and in test [1] were 4000 nM and 0.5 nM, respectively.

For the compound `CCCCOc1cc(CCC(=O)O)ccc1-c1cccc(CN(C)C(=O)c2cccc(OC)c2)c1` [Example 16, 3-(2-butoxy-3′-{[(3-methoxybenzoyl)(methyl)amino]methyl}biphenyl-4-yl)propanoic acid], the Kd in test [2] was found to be 4000 nM; in test [1], 4 nM.
